From patent US20110046223A1, “TREATMENT OF NEUROFIBROMATOSIS” (RAMOT AT TEL-AVIV UNIVERSITY LTD., priority 2006, published 2011)

Key:
Format in all cases: cell-based, human
Ras-GTP = assay: serum-stimulated GTP loading of Ras, kinetic study
Description: Unless otherwise indicated, cells were lysed 48 hours after being treated with lysis buffer, as described in Haklai, et al., supra. Lysates containing 50-100 μg protein were subjected to SDS-PAGE followed by Western immunoblotting, as described in Haklai, et al., supra.; Elad-Sfadia, G., Haklai, R., Ballan, E., Gabius, H. J., Kloog, Y., J. Biol. Chem. 277:37169-75 (2002); Paz, A., Haklai, R., Elad, G., Ballab, E., Kloog, Y., Oncogene 20:7486-93 (2000), with one of the following antibodies: 1:2000 pan-Ras Ab-3; 1:10,000 anti-phospho-ERK Ab; 1:2000 anti-ERK Ab; 1:1000 anti-Akt Ab; 1:2000 anti-phospho-Akt Ab; 1:500 antitubulin Ab; 1:5000 anti-RalA Ab; 1:1000 anti-p120 RasGAP Ab; or 1:200 anti-neurofibromin Ab. The immunoblots were then exposed either to 1:7500 peroxidase goat anti-mouse IgG or to 1:2000 peroxidase goat anti-rabbit IgG. Protein bands were visualized by ECL and quantified by densitometry with Image Master VDS-CL (Amersham) using TINA 2.0 software (Ray Tests). To obtain reliable comparisons between replicated experiments for statistical analysis, a standardization procedure was used, in which the density of each given protein band as recorded with its specific Ab, was normalized. Normalization was achieved by collecting and averaging all the data obtained for a given band (for example, for the Ras-GTP band) in a set of experiments, irrespective of cell type or treatment. The standard average density was defined as 1.0, and each of the individually determined bands was related to this value. Accordingly, the normalized value of a single band would be 1.0 if it was equal to the standard value, or would range between values above and below 1.0 (respectively representing values higher and lower than the standard). The normalized values thus obtained were used to calculate means±SD and, to determine, using Student's t-test, the statistical significance of differences between populations. Lysates containing 500 μg protein were used to determine Ras-GTP by the GST-RBD pull-down assay, and this was followed by Western immunoblotting with pan anti-Ras Ab as described in Elad-Sfadia, G., et al., supra. Lysates containing 500 μg protein were used to determine RalA-GTP by the GST-RalBD pulldown assay, followed by Western immunoblotting with anti-RalA Ab [Wolthuis, R. M., Zwartkruis, F., Moen, T. C., Bos, J. L. Ral. Curr. Biol. 8:471-4 (1998)]. Actin cytoskeletal elements were labeled with rhodamine-phalloidin, and digital fluorescence images were collected on a Zeiss LSM 510 confocal microscope fitted with fluorescein and rhodamine filters, as described in Gana-Weisz, M., et al., supra.
(§1) First, the time courses of serum-stimulated GTP loading of Ras and serum-stimulated activation of signals downstream of Ras were determined. […]

p120 RasGAP = p120 RasGAP amounts, immunoblot; conditions: 75 μM FTS, 48 hours, NF-1 and non-NF-1 cells
Description: Unless otherwise indicated, cells were lysed 48 hours after being treated with lysis buffer, as described in Haklai, et al., supra. […] Protein bands were visualized by ECL and quantified by densitometry with Image Master VDS-CL (Amersham) using TINA 2.0 software (Ray Tests). To obtain reliable comparisons between replicated experiments for statistical analysis, a standardization procedure was used, in which the density of each given protein band as recorded with its specific Ab, was normalized. […] The standard average density was defined as 1.0, and each of the individually determined bands was related to this value. […] Actin cytoskeletal elements were labeled with rhodamine-phalloidin, and digital fluorescence images were collected on a Zeiss LSM 510 confocal microscope fitted with fluorescein and rhodamine filters, as described in Gana-Weisz, M., et al., supra. […]

[1] = tested on: total ERK, total Akt, or total RalA; assay: total ERK, total Akt, total RalA, Western immunoblotting; conditions: NF-1 cell lines
Description: (§2) Unless otherwise indicated, cells were lysed 48 hours after being treated with lysis buffer, as described in Haklai, et al., supra. […] Protein bands were visualized by ECL and quantified by densitometry with Image Master VDS-CL (Amersham) using TINA 2.0 software (Ray Tests). To obtain reliable comparisons between replicated experiments for statistical analysis, a standardization procedure was used, in which the density of each given protein band as recorded with its specific Ab, was normalized. […] The standard average density was defined as 1.0, and each of the individually determined bands was related to this value. […] Actin cytoskeletal elements were labeled with rhodamine-phalloidin, and digital fluorescence images were collected on a Zeiss LSM 510 confocal microscope fitted with fluorescein and rhodamine filters, as described in Gana-Weisz, M., et al., supra.
(§3) Next, to determine whether down-regulation of active Ras by FTS was accompanied by inhibition of Ras signaling, the effect of FTS on steady-state levels of phospho-ERK, phospho-Akt, and RalA-GTP as read-outs of the three prominent Ras pathways, Ras/Raf/MEK/ERK, Ras/PI3K/Akt, and Ras/RalGEF/RalA, respectively, was examined. […]

phospho-ERK [2] = assay: steady-state phospho-ERK, Western immunoblotting
Description: as §2, §3

phospho-ERK [3] = assay: serum-stimulated phospho-ERK, kinetic study
Description: as §2, §1

[4] = all NF-1 cell lines (T265P21, ST88-14, 90-8)

CC(C)=CCC/C(C)=C/CC/C(C)=C/CSc1ccccc1C(=O)O [FTS, S-farnesylthiosalicylic acid]
duration of the Ras signal in the presence of FTS (Ras-GTP; NF-1 cells, serum stimulation): 5 to 10 min
serum-stimulated increase in Ras-GTP (Ras-GTP; STS26T cells, 20 μM FTS, serum-starved 24 hours, stimulated with 10% serum): strongly inhibited
duration of the serum-stimulated signals (Ras-GTP, phospho-ERK, phospho-Akt) (Ras-GTP; all NF-1 cell lines): shortened the duration of the signals
serum-stimulated increase in Ras-GTP (Ras-GTP; [4]): reduced
amounts of p120 RasGAP (p120 RasGAP): no effect
amounts of total ERK, total Akt, or total RalA [1]: did not affect
steady-state phospho-ERK (phospho-ERK [2]; all NF-1 cell lines): significant reduction
increase in phospho-ERK (phospho-ERK [2]; non-NF-1 STS26T cells, steady state): 10%-20%
serum-stimulated increase in phospho-ERK (phospho-ERK [3]; STS26T cells, serum-starved 24 hours, stimulated with 10% serum): inhibited
serum-stimulated increase in phosphor-ERK (phospho-ERK [3]; [4]): reduced
